Laboratory results taken from the supplement of paper PMC10733146.

Experiments:
Assay in all cases: viability relative to DMSO control (fraction); higher = less drug effect (more viable cells)
Conditions in all cases: 48 h
[1] = compound: C#CCC(Cc1cnc2nc(N)nc(N)c2n1)c1ccc(C(=O)N[C@@H](CCC(=O)O)C(=O)O)cc1 [Pralatrexate]
Procedure, shortened: (§1)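 Viability is given as CellTiter-Glo luminescence relative to the median of 16 inner DMSO wells. Fresh or cryopreserved primary mononuclear tumour cells from blood, bone marrow (both Ficoll-isolated) or processed lymph node were plated at 4 × 10^4 cells per well in 384-well plates against five pre-plated compound concentrations, one well each. Incubation lasted 48 h at 37 °C and 5% CO2 in RPMI-1640 with penicillin/streptomycin, L-glutamine and human serum.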

[2] = compound: C1=N/C2=N/c3ccc(OCCN4CCCC4)c(c3)COC/C=C/COCc3cccc(c3)C(=C1)N2 [Pacritinib]
Procedure, shortened: as §1

[3] = compound: CC(C)(O)CNc1nc(Nc2ccnc(C(F)(F)F)c2)nc(-c2cccc(C(F)(F)F)n2)n1 [AG-221 (Enasidinib)]
Procedure, shortened: as §1

[4] = compound: CC(C)C[C@H](NC(=O)[C@H](Cc1ccccc1)NC(=O)c1cnccn1)B(O)O [Bortezomib]
Procedure, shortened: as §1

[5] = compound: CC[C@]1(O)C[C@H]2CN(CCc3c([nH]c4ccccc34)[C@@](C(=O)OC)(c3cc4c(cc3OC)N(C=O)[C@H]3[C@@](O)(C(=O)OC)[C@H](OC(C)=O)[C@]5(CC)C=CCN6CC[C@]43[C@@H]65)C2)C1 [Vincristine]
Procedure, shortened: as §1

[6] = compound: COC1=CC(c2cc3ccccc3[nH]2)=N/C1=C\c1[nH]c(C)cc1C [Obatoclax mesylate]
Procedure, shortened: as §1

[7] = compound: COc1cc(OC)c(/C=C/S(=O)(=O)Cc2ccc(OC)c(NCC(=O)O)c2)c(OC)c1 [Rigosertib]
Procedure, shortened: as §1

[8] = compound: COc1nc(N)nc2c1ncn2[C@@H]1O[C@H](CO)[C@@H](O)[C@@H]1O [Nelarabine]
Procedure, shortened: as §1

[9] = compound: Cc1ccc(NC(=O)c2ccc(CN3CCN(C)CC3)cc2)cc1Nc1nccc(-c2cccnc2)n1 [Imatinib]
Procedure, shortened: as §1

[10] = compound: Cc1cn(-c2cc(NC(=O)c3ccc(C)c(Nc4nccc(-c5cccnc5)n4)c3)cc(C(F)(F)F)c2)cn1 [Nilotinib]
Procedure, shortened: as §1

[11] = compound: Cn1c(=O)n(-c2ccc(C(C)(C)C#N)cc2)c2c3cc(-c4cnc5ccccc5c4)ccc3ncc21 [BEZ235]
Procedure, shortened: as §1

[12] = compound: Nc1nc2n[nH]nc2c(=O)[nH]1 [8-Azaguanin]
Procedure, shortened: as §1

[13] = compound: O=C(CCCCCCC(=O)Nc1ccccc1)NO [Vorinostat]
Procedure, shortened: as §1

[14] = compound: O=C(NCC1(c2nc(-c3ccccc3)cs2)CCOCC1)c1cccc(-c2noc(C(F)(F)F)n2)c1 [TMP269]
Procedure, shortened: as §1

[15] = compound: OC[C@H]1O[C@@H](n2cnc3c2N=CNC[C@H]3O)C[C@@H]1O [Pentostatin]
Procedure, shortened: as §1

## primary BL patient cells (S005)
[1]; 0.024 µM
  viability: 0.791
[1]; 0.12 µM
  viability: 0.726
[1]; 0.6 µM
  viability: 0.662
[1]; 3 µM
  viability: 0.709
[1]; 15 µM
  viability: 0.698
[2]; 0.024 µM
  viability: 1
[2]; 0.12 µM
  viability: 1
[2]; 0.6 µM
  viability: 0.879
[2]; 3 µM
  viability: 0.657
[2]; 15 µM
  viability: 0.241
[3]; 0.024 µM
  viability: 0.867
[3]; 0.12 µM
  viability: 1.43
[3]; 0.6 µM
  viability: 0.806
[3]; 3 µM
  viability: 1.26
[3]; 15 µM
  viability: 1.35
[4]; 0.008 µM
  viability: 1.57
[4]; 0.04 µM
  viability: 0.959
[4]; 0.2 µM
  viability: 1.54
[4]; 1 µM
  viability: 0.964
[4]; 5 µM
  viability: 1.44
[5]; 0.016 µM
  viability: 1.08
[5]; 0.08 µM
  viability: 0.912
[5]; 0.4 µM
  viability: 1.11
[5]; 2 µM
  viability: 0.811
[5]; 10 µM
  viability: 1.08
[6]; 0.024 µM
  viability: 0.895
[6]; 0.12 µM
  viability: 0.821
[6]; 0.6 µM
  viability: 0.589
[6]; 3 µM
  viability: 0.465
[6]; 15 µM
  viability: 0.209
[7]; 0.008 µM
  viability: 0.955
[7]; 0.04 µM
  viability: 0.94
[7]; 0.2 µM
  viability: 0.95
[7]; 1 µM
  viability: 0.89
[7]; 5 µM
  viability: 0.906
[8]; 0.024 µM
  viability: 0.894
[8]; 0.12 µM
  viability: 0.99
[8]; 0.6 µM
  viability: 0.893
[8]; 3 µM
  viability: 0.996
[8]; 15 µM
  viability: 0.873
[9]; 0.016 µM
  viability: 1.02
[9]; 0.08 µM
  viability: 0.924
[9]; 0.4 µM
  viability: 0.982
[9]; 2 µM
  viability: 0.905
[9]; 10 µM
  viability: 0.867
[10]; 0.016 µM
  viability: 1.08
[10]; 0.08 µM
  viability: 1.02
[10]; 0.4 µM
  viability: 1.07
[10]; 2 µM
  viability: 1.03
[10]; 10 µM
  viability: 1.02
[11]; 0.024 µM
  viability: 1.28
[11]; 0.12 µM
  viability: 0.972
[11]; 0.6 µM
  viability: 1.12
[11]; 3 µM
  viability: 0.756
[11]; 15 µM
  viability: 0.544
[12]; 0.032 µM
  viability: 0.991
[12]; 0.16 µM
  viability: 1.05
[12]; 0.8 µM
  viability: 0.978
[12]; 4 µM
  viability: 0.812
[12]; 20 µM
  viability: 0.658
[13]; 0.016 µM
  viability: 0.977
[13]; 0.08 µM
  viability: 0.869
[13]; 0.4 µM
  viability: 0.863
[13]; 2 µM
  viability: 0.595
[13]; 10 µM
  viability: 0.689
[14]; 0.024 µM
  viability: 1.11
[14]; 0.12 µM
  viability: 1.08
[14]; 0.6 µM
  viability: 1.12
[14]; 3 µM
  viability: 1.08
[14]; 15 µM
  viability: 1
[15]; 0.03 µM
  viability: 0.881
[15]; 0.15 µM
  viability: 0.79
[15]; 0.75 µM
  viability: 1
[15]; 3.75 µM
  viability: 0.914
[15]; 18.76 µM
  viability: 0.909

## primary MCL patient cells (S053)
[1]; 0.024 µM
  viability: 0.962
[1]; 0.12 µM
  viability: 0.866
[1]; 0.6 µM
  viability: 0.853
[1]; 3 µM
  viability: 0.885
[1]; 15 µM
  viability: 0.865
[2]; 0.024 µM
  viability: 1.04
[2]; 0.12 µM
  viability: 1.17
[2]; 0.6 µM
  viability: 0.965
[2]; 3 µM
  viability: 0.506
[2]; 15 µM
  viability: 0.0844
[3]; 0.024 µM
  viability: 0.982
[3]; 0.12 µM
  viability: 0.769
[3]; 0.6 µM
  viability: 0.943
[3]; 3 µM
  viability: 0.782
[3]; 15 µM
  viability: 0.958
[4]; 0.008 µM
  viability: 0.952
[4]; 0.04 µM
  viability: 1.06
[4]; 0.2 µM
  viability: 0.997
[4]; 1 µM
  viability: 1.01
[4]; 5 µM
  viability: 0.931
[5]; 0.016 µM
  viability: 0.401
[5]; 0.08 µM
  viability: 0.335
[5]; 0.4 µM
  viability: 0.299
[5]; 2 µM
  viability: 0.304
[5]; 10 µM
  viability: 0.287
[6]; 0.024 µM
  viability: 1.17
[6]; 0.12 µM
  viability: 1.18
[6]; 0.6 µM
  viability: 0.965
[6]; 3 µM
  viability: 0.467
[6]; 15 µM
  viability: 0.083
[7]; 0.008 µM
  viability: 0.891
[7]; 0.04 µM
  viability: 0.922
[7]; 0.2 µM
  viability: 0.629
[7]; 1 µM
  viability: 0.518
[7]; 5 µM
  viability: 0.269
[8]; 0.024 µM
  viability: 1.02
[8]; 0.12 µM
  viability: 1.04
[8]; 0.6 µM
  viability: 0.954
[8]; 3 µM
  viability: 0.983
[8]; 15 µM
  viability: 0.767
[9]; 0.016 µM
  viability: 1.1
[9]; 2 µM
  viability: 1.07
[10]; 0.016 µM
  viability: 1.13
[10]; 0.08 µM
  viability: 1.04
[10]; 0.4 µM
  viability: 1.11
[10]; 2 µM
  viability: 1.08
[10]; 10 µM
  viability: 1.21
[11]; 0.024 µM
  viability: 0.984
[11]; 0.12 µM
  viability: 1.17
[11]; 0.6 µM
  viability: 0.95
[11]; 3 µM
  viability: 1.05
[11]; 15 µM
  viability: 0.549
[12]; 0.032 µM
  viability: 0.937
[12]; 0.16 µM
  viability: 0.936
[12]; 0.8 µM
  viability: 0.559
[12]; 4 µM
  viability: 0.411
[12]; 20 µM
  viability: 0.313
[13]; 0.016 µM
  viability: 1.02
[13]; 0.08 µM
  viability: 0.966
[13]; 0.4 µM
  viability: 0.617
[13]; 2 µM
  viability: 0.149
[13]; 10 µM
  viability: 0.0944
[14]; 0.024 µM
  viability: 0.816
[14]; 0.12 µM
  viability: 0.82
[14]; 0.6 µM
  viability: 0.826
[14]; 3 µM
  viability: 0.831
[14]; 15 µM
  viability: 0.843
[15]; 0.03 µM
  viability: 0.873
[15]; 0.15 µM
  viability: 0.831
[15]; 0.75 µM
  viability: 0.81
[15]; 3.75 µM
  viability: 0.757
[15]; 18.76 µM
  viability: 0.675
